{"source": "patent US20190008151A1", "about": "“PLANT DISEASE CONTROL COMPOSITION AND PLANT DISEASE CONTROL METHOD” (SUMITOMO CHEMICAL COMPANY, LIMITED, priority 2015, published 2019)", "key": {"wheat leaf blight fungus": {"tested_on": "wheat leaf blight fungus", "test": "Test Example 3: growth of wheat leaf blight fungus in YBG medium, microtiter plate, absorbance at 550 nm", "format": "cell-based", "details": "18° C., six days", "experimental": "The present compound 1 or the present compound 2-1 was dissolved into dimethyl sulfoxide such that each concentration of the present compound 1 or the present compound 2-1 was adjusted to one hundred fifty times as much as the concentration indicated in the below-mentioned Table 4. The resultant agent solution was dispensed into a microliter plate (with 96 wells) in 1 μl portion thereof per well. One hundred forty nine (149) μl of YBG medium (which was prepared by dissolving 10 g of yeast extract, 10 g of Bacto Peptone, and 20 mL of glycerol into 1 L of water, followed by sterilizing the medium) was dispensed into the wells to which the agent solution(s) was/were dispensed. The plate was cultivated at 18° C. for six days, thereby allowing wheat leaf blight fungus to undergo proliferation, and the absorbance at 550 nm of each well of the micro titer plate was then measured to examine a degree of growth of the wheat leaf blight fungus (hereinafter referred to as “treated group”).\nWhereas, wheat leaf blight fungus was proliferated similarly to the case of the treated group except that dimethyl sulfoxide was used instead of the agent solution, and the degree of the growth was examined (hereinafter referred to as “untreated group”). The efficacy was calculated from the respective obtained degree of growth by the below-mentioned “Equation 1”.\nEfficacy(%)=100×(X−Y)/X Equation 1 […]"}, "[1]": {"tested_on": "wheat rust fungus (Puccinia recondite)", "test": "Test Example 4: foliar spray of flowable formulations on wheat, inoculation with wheat rust fungus, lesion area", "format": "in vivo, Puccinia recondite on wheat (cultivar. Shirogane)", "details": "lesion area after ten days at 23° C.", "experimental": "Five (5) parts of the present compound 1, 35 parts of a mixture of white carbon and ammonium polyoxyethylene alkyl ether sulfate (the weight ratio of 1:1) and […] of water were mixed, and the mixture was then finely-ground by a wet grinding method to obtain a flowable formulation comprising the present compound 1. Separately, the flowable formulation comprising the present compound 2-1 was prepared according to the above-mentioned similar method except that the present compound 2-1 was used instead of the present compound 1 to form a flowable formulation comprising the present compound 2-1.\nEach of the above-mentioned respective flowable formulations, and the flowable formulation comprising the present compound 1 and the present compound 2-1 that was prepared according to the above-mentioned Formulation Example 3 was diluted with water such that each concentration of the respective compounds in the dilution solutions was adjusted to that indicated in Table 5, to prepare the dilution solutions, respectively.\nA plastic pot was filled with soil, and thereto wheat (cultivar. Shirogane) was seeded, and the plants were grown in a greenhouse for ten days. […]\nFrom each of the lesion area of the treated group and the untreated group, respectively, the efficacy of the treated group was calculated by the below-mentioned Equation 2. […]"}}, "data": [{"compound": "CNC(=O)C(OC)c1ccccc1COc1cc(C)ccc1C", "note": "(stereo not shown) [Present compound 1]", "values": [{"measurement": "Efficacy (%)", "setting": "wheat leaf blight fungus; concentration in medium 0.005 ppm", "result": 20, "unit": "%"}, {"measurement": "Efficacy (%)", "setting": "wheat leaf blight fungus; concentration in medium 0.1 ppm", "result": 65, "unit": "%"}, {"measurement": "Efficacy (%)", "setting": "[1]; concentration 0.0005 ppm", "result": 22, "unit": "%"}, {"measurement": "Efficacy (%)", "setting": "[1]; concentration 0.01 ppm", "result": 46, "unit": "%"}]}]}
